Source: article PMC12169608, “Peptidomimetic Phenoxymethyl Ketone Warheads as Potent Dual-Mode Inhibitors against SARS-CoV‑2 M^pro and Cathepsin” (Journal of Medicinal Chemistry, 2025)
Values after ≈ are worked out from the molar mass of the structure shown. Read-outs that look alike come from different tables or passages of the source.

What was measured:
[1] = Hamster liver microsomal stability; settings: microsomes, pH 7.4
[2] = target: human cathepsin B (hCTSB) (Homo sapiens, UniProt P07858); test: hCTSB biochemical assay
in vitro [3] = settings: mouse, plasma, mouse plasma protein binding
[4] = 3 h, 2 µM
[5] = Mouse liver microsomal stability; settings: microsomes, pH 7.4
SARS-CoV-2 = test: microbe, parasite or virus in culture; type: cell-based; settings: Severe acute respiratory syndrome coronavirus 2, Vero C1008, read-out: SARS-CoV-2 CPE reduction assay pEC50 (converted)
in vitro [6] = settings: mouse, hepatocytes, CLint (mouse hepatocytes)
Cathepsin D = target: T1, Cathepsin D (Homo sapiens, UniProt P07339); test: Protease panel: Cathepsin D; type: biochemical
T1 construct: Human liver; tissue Eurofins Discovery (assay service); host or cells: human liver

[7] = Hamster hepatocyte stability; settings: cryopreserved hepatocytes, t1/2 (hamster hepatocytes), without ritonavir
hamster CTSL = hamster CTSL (Mesocricetus auratus, UniProt Q812A7); test: hamster CTSL biochemical assay
[8] = test system: luciferase-expressing VSV (ΔG) pseudotyped with Spike from SARS-CoV-2; test: microbe, parasite or virus in culture; type: cell-based
physchem [9] = settings: pH 7.4
SARS-CoV-2 M^pro = SARS-CoV-2 M^pro (Severe acute respiratory syndrome coronavirus 2, UniProt P0DTD1); test: biochemical; type: biochemical
Caspase 2 = target: T2, Caspase 2 (Homo sapiens, UniProt P42575); test: Protease panel: Caspase 2; type: biochemical
T2 construct: purchased Eurofins Discovery (assay service); host or cells: E. coli
T2 sequence (P42575 170-325 limits assumed): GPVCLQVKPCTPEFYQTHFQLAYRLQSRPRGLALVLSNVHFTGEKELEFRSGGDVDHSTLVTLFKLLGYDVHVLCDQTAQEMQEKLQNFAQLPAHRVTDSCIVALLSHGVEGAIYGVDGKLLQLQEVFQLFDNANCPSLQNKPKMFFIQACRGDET
T2 sequence (P42575 348-452 limits assumed): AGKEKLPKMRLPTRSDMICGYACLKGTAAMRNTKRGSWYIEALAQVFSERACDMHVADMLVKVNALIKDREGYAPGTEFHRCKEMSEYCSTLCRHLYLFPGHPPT

[10] = Mouse hepatocyte stability
in vitro [11] = settings: hamster, hepatocytes
thrombin = target: T3, thrombin (Homo sapiens, UniProt P00734); test: Protease panel: thrombin; type: biochemical
T3 construct: preincubated with thrombin (10 nM, Sigma); purchased Sigma-Aldrich

Neutrophil Elastase 2 = target: T4, Neutrophil Elastase 2 (Homo sapiens, UniProt P08246); test: Protease panel: Neutrophil Elastase 2; type: biochemical
T4 construct: neutrophils; tissue Eurofins Discovery (assay service); host or cells: human neutrophils
T4 sequence (P08246 30-267): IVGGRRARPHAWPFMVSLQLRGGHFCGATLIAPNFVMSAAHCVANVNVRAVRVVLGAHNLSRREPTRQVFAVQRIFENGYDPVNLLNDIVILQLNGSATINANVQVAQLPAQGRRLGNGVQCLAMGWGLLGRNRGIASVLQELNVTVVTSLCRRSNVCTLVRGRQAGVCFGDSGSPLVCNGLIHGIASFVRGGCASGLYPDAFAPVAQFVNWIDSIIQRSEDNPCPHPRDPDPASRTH

physchem [12] = settings: pH 7.4; remark: listed apart in the source
in vitro [13] = settings: mouse, microsomes, pH 7.4
in vitro [14] = settings: hamster, microsomes, pH 7.4
[15] = target: mouse cathepsin L (mCTSL) (Mus musculus, UniProt P06797); test: mCTSL biochemical assay
in vitro [16] = settings: African green monkey
trypsin = test: Protease panel: trypsin
Calpain-1 = target: T5, Calpain-1 (Homo sapiens, UniProt P07384); test: Protease panel: Calpain-1; type: biochemical
T5 construct: erythrocytes; tissue Eurofins Discovery (assay service); host or cells: human erythrocytes
T5 sequence (P07384 1-714): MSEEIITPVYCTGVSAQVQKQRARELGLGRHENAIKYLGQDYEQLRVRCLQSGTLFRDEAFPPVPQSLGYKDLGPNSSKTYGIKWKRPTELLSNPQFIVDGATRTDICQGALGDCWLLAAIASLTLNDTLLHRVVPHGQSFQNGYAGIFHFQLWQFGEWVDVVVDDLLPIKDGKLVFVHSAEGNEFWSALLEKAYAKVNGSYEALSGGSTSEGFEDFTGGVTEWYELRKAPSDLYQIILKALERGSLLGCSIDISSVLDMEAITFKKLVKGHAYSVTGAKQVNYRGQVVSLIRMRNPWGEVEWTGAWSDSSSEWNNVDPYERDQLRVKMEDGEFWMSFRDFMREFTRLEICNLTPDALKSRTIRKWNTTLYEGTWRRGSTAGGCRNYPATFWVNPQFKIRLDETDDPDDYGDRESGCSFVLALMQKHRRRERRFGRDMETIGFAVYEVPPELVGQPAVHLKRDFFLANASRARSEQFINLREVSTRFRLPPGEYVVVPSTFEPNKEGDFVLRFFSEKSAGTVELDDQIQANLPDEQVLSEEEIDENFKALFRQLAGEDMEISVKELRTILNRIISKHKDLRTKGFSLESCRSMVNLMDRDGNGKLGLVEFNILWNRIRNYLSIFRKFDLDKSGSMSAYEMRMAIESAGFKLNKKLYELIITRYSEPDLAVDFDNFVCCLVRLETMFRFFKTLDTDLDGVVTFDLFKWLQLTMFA
T5 sequence (P04632 1-268 partner): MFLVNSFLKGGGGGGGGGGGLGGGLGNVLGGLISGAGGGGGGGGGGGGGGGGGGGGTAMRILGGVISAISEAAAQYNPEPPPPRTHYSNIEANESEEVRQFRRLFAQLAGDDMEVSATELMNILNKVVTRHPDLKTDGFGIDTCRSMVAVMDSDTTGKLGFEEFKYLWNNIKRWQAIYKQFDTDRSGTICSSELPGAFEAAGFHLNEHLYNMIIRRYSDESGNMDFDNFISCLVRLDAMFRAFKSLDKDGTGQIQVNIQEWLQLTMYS

[17] = target: T6, human cathepsin L (hCTSL) (Homo sapiens, UniProt P07711); test: hCTSL biochemical assay
T6 construct: purchased R&D Systems

[18] = target: mouse cathepsin B (mCTSB) (Mus musculus, UniProt P10605); test: mCTSB biochemical assay
Kinetic solubility = settings: PBS buffer pH 7.4
[19] = Plasma protein binding (ultra-centrifugation)
[20] = pH 7.4

T6 sequence (P07711 114-333): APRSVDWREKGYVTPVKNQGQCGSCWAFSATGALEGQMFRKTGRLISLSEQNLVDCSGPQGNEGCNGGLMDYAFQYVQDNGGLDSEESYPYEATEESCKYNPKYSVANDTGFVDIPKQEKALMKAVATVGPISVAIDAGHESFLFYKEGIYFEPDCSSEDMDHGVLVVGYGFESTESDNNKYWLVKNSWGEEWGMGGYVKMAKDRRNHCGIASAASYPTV
mouse cathepsin L (mCTSL), sequence (P06797 114-334): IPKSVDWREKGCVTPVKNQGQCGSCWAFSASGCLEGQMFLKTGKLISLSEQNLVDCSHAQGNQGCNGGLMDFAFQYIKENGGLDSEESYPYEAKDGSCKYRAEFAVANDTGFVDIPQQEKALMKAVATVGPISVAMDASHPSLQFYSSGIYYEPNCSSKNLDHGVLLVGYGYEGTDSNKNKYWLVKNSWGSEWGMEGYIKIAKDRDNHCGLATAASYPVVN
T1 sequence (P07339 65-412): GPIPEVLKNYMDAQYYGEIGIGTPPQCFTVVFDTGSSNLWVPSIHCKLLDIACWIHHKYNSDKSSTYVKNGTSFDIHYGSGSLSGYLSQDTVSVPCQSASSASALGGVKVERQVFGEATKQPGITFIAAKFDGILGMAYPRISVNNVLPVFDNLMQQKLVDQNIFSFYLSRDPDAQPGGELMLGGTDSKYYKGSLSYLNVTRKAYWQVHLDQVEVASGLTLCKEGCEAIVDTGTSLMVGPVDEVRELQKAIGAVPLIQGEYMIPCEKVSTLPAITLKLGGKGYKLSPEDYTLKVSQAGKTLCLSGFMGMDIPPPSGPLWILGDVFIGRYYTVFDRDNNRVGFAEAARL
mouse cathepsin B (mCTSB), sequence (P10605 80-339): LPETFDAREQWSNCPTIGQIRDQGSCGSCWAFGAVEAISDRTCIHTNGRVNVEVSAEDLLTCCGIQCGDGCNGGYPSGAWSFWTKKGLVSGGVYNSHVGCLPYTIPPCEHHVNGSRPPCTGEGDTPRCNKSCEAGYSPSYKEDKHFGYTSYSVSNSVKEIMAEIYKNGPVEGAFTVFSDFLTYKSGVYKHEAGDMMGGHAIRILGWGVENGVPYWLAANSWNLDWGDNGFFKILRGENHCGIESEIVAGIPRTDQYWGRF
hamster CTSL, sequence (Q812A7 entry or part of it): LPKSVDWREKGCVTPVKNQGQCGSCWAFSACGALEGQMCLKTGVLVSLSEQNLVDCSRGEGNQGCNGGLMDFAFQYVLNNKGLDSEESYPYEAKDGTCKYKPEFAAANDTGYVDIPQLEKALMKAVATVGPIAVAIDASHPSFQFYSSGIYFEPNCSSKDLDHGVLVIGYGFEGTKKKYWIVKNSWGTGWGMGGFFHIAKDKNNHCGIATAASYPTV

Molecule: COc1cccc2[nH]c(C(=O)N[C@@H](Cc3cccc(F)c3)C(=O)N[C@@H](C[C@@H]3CCNC3=O)C(=O)COc3c(F)c(F)c(C(C)O)c(F)c3F)cc12 (stereo partly drawn) [compound 8, N-((2S)-3-(3-Fluorophenyl)-1-oxo-1-(((2S)-3-oxo-1-((S)-2-oxopyrrolidin-3-yl)-4-(2,3,5,6-tetrafluoro-4-(1-hydroxyethyl)phenoxy)butan-2-yl)amino)propan-2-yl)-4-methoxy-1H-indole-2-carboxamide]
- half-life at 1 µM [1]: 1.08 min
- hCTSB biochemical assay pIC50 [2]: 5.73
- fraction unbound at 3 h, 2 µM (in vitro [3]; fraction bound (Fb)): 0.0083
- fraction unbound at 3 h, 2 µM (in vitro [3]; fraction unbound (Fu)): 0.0083
- mouse plasma protein binding, fraction bound (Fb) [4]: 99.17%
- half-life at 1 µM [5]: 1.28 min
- EC50 (SARS-CoV-2): 0.158 µM
- hepatocyte CLint at 2 h, 2 µM (in vitro [6]): 64.5 µL/min/1e6 cells
- inhibition at 10 µM (Cathepsin D): 9%
- half-life at 2 h, 2 µM [7]: 20.9 min
- pIC50 (hamster CTSL) (hamster CTSL): 7.92 ± 0.18
- EC50 ([8]; Vesicular stomatitis virus, Vero C1008, read-out: Entry reporter assay pEC50 (converted)): 2.88 µM
- solubility kinetic at 24 h (physchem [9]): 12.3 µM (≈ 8.81 µg/mL)
- IC50 (SARS-CoV-2 M^pro; read-out: M^pro biochemical assay pIC50 (converted)): 0.00562 µM
- inhibition at 10 µM (Caspase 2): 20%
- half-life at 1 µM ([10]; mouse, cryopreserved hepatocytes): 26.9 min
- remaining at 2 h, 1 µM (in vitro [11]; % remaining at 120 min (hamster hepatocytes, compound/ritonavir 1:1)): 7.05%
- remaining at 2 h, 1 µM (in vitro [11]; % remaining at 120 min (hamster hepatocytes, compound/ritonavir 2:1)): 2.78%
- hepatocyte CLint at 2 h, 4 µM (in vitro [11]; CLint (hamster hepatocytes + ritonavir 4:1)): 29.7 µL/min/1e6 cells
- hepatocyte CLint at 2 h, 2 µM (in vitro [11]; CLint (hamster hepatocytes)): 33.1 µL/min/1e6 cells
- hepatocyte CLint at 1 µM (in vitro [11]; CLint (hamster hepatocytes, compound/ritonavir 1:1)): 22.6 µL/min/1e6 cells
- hepatocyte CLint at 1 µM (in vitro [11]; CLint (hamster hepatocytes, compound/ritonavir 2:1)): 31.7 µL/min/1e6 cells
- half-life at 2 h, 4 µM (in vitro [11]; t1/2 (hamster hepatocytes + ritonavir 4:1)): 23.3 min
- half-life at 1 µM (in vitro [11]; t1/2 (hamster hepatocytes, compound/ritonavir 1:1)): 30.7 min
- half-life at 1 µM (in vitro [11]; t1/2 (hamster hepatocytes, compound/ritonavir 2:1)): 21.9 min
- inhibition at 10 µM (thrombin): -0.2 ± 0.6%
- inhibition at 10 µM (Neutrophil Elastase 2): 2%
- logD at 1 h (physchem [12]): 3.26
- microsomal CLint at 1 µM (in vitro [13]): 1100 µL/min/mg
- remaining at 1 h, 1 µM (in vitro [13]): 0%
- microsomal CLint at 1 µM (in vitro [14]): 1290 µL/min/mg
- remaining at 1 h, 1 µM (in vitro [14]): 0%
- IC50 ([15]; read-out: pIC50 (mouse CTSL) (converted)): 0.288 µM
- CC50 (in vitro [16]): > 1.26 µM
- Trypsin inhibition at 10 μM (trypsin): 7.5 ± 4.9%
- inhibition at 10 µM (Calpain-1): 5%
- hCTSL biochemical assay pIC50 [17]: 7.34

Molecule: N-((S)-3-(3-Fluorophenyl)-1-oxo-1-(((S)-2-oxo-5-(5-oxo-1,5-dihydro-4H-1,2,4-triazol-4-yl)-1-(2,3,5,6-tetrafluoro-4-(2-hydroxypropan-2-yl)phenoxy)pentan-3-yl)amino)propan-2-yl)-4-methoxy-1H-indole-2-carboxamide [compound 12]
- hCTSB biochemical assay pIC50 [2]: 6.65
- pIC50 (mouse CTSB) [18]: > 8.16
- kinetic solubility (Kinetic solubility): 5.84 µM
- mouse plasma protein binding, fraction bound (Fb) [19]: 99.69%
- mouse plasma protein binding, fraction unbound (Fu) [19]: 0.31%
- Entry reporter assay pEC50 [8]: 5.14
- pCC50 (CPE), cytotoxicity (Vero E6 cells): < 5.00
- M^pro biochemical assay pIC50 (SARS-CoV-2 M^pro): 6.75
- logD [20]: 2.88
- CLint (mouse hepatocytes + ritonavir 4:1) ([10]; compound/ritonavir 4:1): 37.1 μL/min/10^6 cells
- t1/2 (mouse hepatocytes + ritonavir 4:1) ([10]; compound/ritonavir 4:1): 46.7 min
- CLint (mouse hepatocytes) ([10]; without ritonavir): 76.8 μL/min/10^6 cells
- t1/2 (mouse hepatocytes) ([10]; without ritonavir): 22.6 min
- pIC50 (mouse CTSL) [15]: 7.66
- hCTSL biochemical assay pIC50 [17]: 9.48
- selectivity for hCTSL over M^pro [17]: more than 500 fold
